Results: paper PMC7115377 (European Journal of Medicinal Chemistry, 2018)
Where two headings read alike, the source gives them in different places.

Assays:
HeLa cells = settings: microscopy
influenza B/Ned/537/05 [1] = assay: Influenza B antiviral assay in MDCK cells; assay type: cell-based; settings: Influenza B virus, read-out: mean EC50 anti-influenza B activity
influenza B/Ned/537/05 [2] = assay: Influenza B antiviral assay in MDCK cells; assay type: cell-based; settings: Influenza B virus, read-out: EC50 Influenza B, microscopic method
[3] = test system: Respiratory syncytial virus (RSV; strain Long); assay: microbe, parasite or virus in culture; assay type: cell-based; settings: human respiratory syncytial virus, HeLa, read-out: EC50 RSV
influenza B virus = settings: read-out: EC50 influenza B; previous series; ref [21]; cited from earlier work

Structure (SMILES) | Cytotoxicity MCC (HeLa cells) [µM] | other results
COc1cccc(N2C(N)=NC(N)=NC23CCN(C(=O)OC(C)(C)C)CC3)c1 [Compound 8, Tert-butyl 2,4-diamino-1-(3-methoxyphenyl)-1,3,5,9-tetraazaspiro[5.5]undeca-2,4-diene-9-carboxylate] | >100 | –
CCCCC(=O)N1CCC2(CC1)N=C(N)N=C(N)N2c1cccc(OC)c1 [Compound 9, 2,4-Diamino-1-(3-methoxyphenyl)-9-(1-oxopent-1-yl)-1,3,5,9-tetraazaspiro[5.5]undeca-2,4-diene] | >100 | –
COc1cccc(N2C(N)=NC(N)=NC23CCN(C(=O)c2ccc(C(F)(F)F)cc2C)CC3)c1 [Compound 10, 2,4-Diamino-1-(3-methoxyphenyl)-9-[(2-methyl-4-(trifluoromethyl)phenyl)carbonyl]-1,3,5,9-tetraazaspiro[5.5]undeca-2,4-diene] | >100 | –
Cc1ccc(C(=O)N2CCC3(CC2)N=C(N)N=C(N)N3c2cccc(Cl)c2)cc1 [Compound 4, 1-(3-Chlorophenyl)-2,4-diamino-9-(p-tolylcarbonyl)-1,3,5,9-tetraazaspiro[5.5]undeca-2,4-diene] | ≥100 | CC50 fold higher than corresponding MCC (MDCK cells): 22 fold; EC50 (influenza B/Ned/537/05 [1]): ~200 nM
CC(C)(C)OC(=O)N1CCC2(CC1)N=C(N)N=C(N)N2c1cccc(Cl)c1 [Compound 2, Tert-butyl 1-(3-Chlorophenyl)-2,4-diamino-1,3,5,9-tetraazaspiro[5.5]undeca-2,4-diene-9-carboxylate] | >100 | –
NC1=NC2(CCN(C(=O)Nc3ccc(F)cc3)CC2)N(c2cccc(Cl)c2)C(N)=N1 [Compound 6, 1-(3-Chlorophenyl)-2,4-diamino-9-[N-(4-fluorophenyl)carbamoyl]-1,3,5,9-tetraazaspiro-[5.5]undeca −2,4-diene] | ≥100 | EC50 (influenza B/Ned/537/05 [2]): 350 nM; CC50 fold higher than corresponding MCC (MDCK cells): 319 fold
CC(C)(C)OC(=O)N1CCC2(CC1)N=C(N)N=C(N)N2Cc1cccc(Cl)c1 [Compound 11, Tert-butyl 1-(3-Chlorobenzyl)-2,4-diamino-1,3,5,9-tetraazaspiro[5.5]undeca-2,4-diene-9-carboxylate] | >100 | –
CCS(=O)(=O)N1CCC2(CC1)N=C(N)N=C(N)N2CCOC [Compound 20, 2,4-Diamino-9-(ethylsulfonyl)-1-(2-methoxyethyl)-1,3,5,9-tetraazaspiro[5.5]undeca-2,4-diene] | >100 | –
NC(=O)c1ncn([C@@H]2O[C@H](CO)[C@@H](O)[C@H]2O)n1 [Ribavirin] | – | EC50 [3]: 5.8 µM
COCCN1C(N)=NC(N)=NC12CCN(C(=O)NC1CCC(C)CC1)CC2 (centres unmarked) [Compound 18, 2,4-Diamino-9-[(4-methylcyclohexyl)carbamoyl]-1-(2-methoxyethyl)-1,3,5,9-tetraazaspiro-[5.5]undeca-2,4-diene] | >100 | –
NC1=NC2(CCN(C(=O)c3ccc4ccccc4c3)CC2)N(c2cccc(Cl)c2)C(N)=N1 [Compound 5, 1-(3-Chlorophenyl)-2,4-diamino-9-[(naphthalen-2-yl)carbonyl]-1,3,5,9-tetraazaspiro-[5.5]undeca-2,4-diene] | ≥100 | –
NC1=NC2(CCNCC2)N(c2cccc(Cl)c2)C(N)=N1 [Compound 1, 1-(3-Chlorophenyl)-2,4-diamino-1,3,5,9-tetraazaspiro[5.5]undeca-2,4-diene] | >100 | –
COCCN1C(N)=NC(N)=NC12CCN(S(=O)(=O)c1ccccc1)CC2 [Compound 21, 2,4-Diamino-9-(phenylsulfonyl)-1-(2-methoxyethyl)-1,3,5,9-tetraazaspiro[5.5]undeca-2,4-diene] | >100 | –
CC(=O)N[C@H]1[C@H]([C@H](O)[C@H](O)CO)OC(C(=O)O)=C[C@@H]1NC(=N)N [Zanamivir] | – | EC50 (influenza B virus): 60 nM
COc1cccc(N2C(N)=NC(N)=NC23CCNCC3)c1 [Compound 7, 2,4-Diamino-1-(3-methoxyphenyl)-1,3,5,9-tetraazaspiro[5.5]undeca-2,4-diene] | >100 | –
NC1=NC2(CCN(C(=O)C3CCC3)CC2)N(c2cccc(Cl)c2)C(N)=N1 [Compound 3, 9-Cyclobutylcarbonyl-1-(3-chlorophenyl)-2,4-diamino-1,3,5,9-tetraazaspiro[5.5]undeca-2,4-diene] | >100 | –
